Experiments:
Type in all cases: in vivo
Aedes taeniorhynchus = experiment: Mosquito repellency of undecanone, treated gauze glove in cage
Experimental: Forty milliliters of a 2.5 percent solution of undecanone in absolute ethanol was added to a gauze glove (20×15 centimeters) in a 250 milliliter beaker. After soaking for 1 minute, the glove was laid onto aluminum foil in a fume hood for 13 minutes and then suspended by one end from the sash of the fume hood for 3 minutes. The ethanol appeared to be completely evaporated after this treatment as determined by touch. […] The same treatment was used without undecanone as a control. After the same drying steps, no odor of ethanol could be detected by smell. The control glove was the same physical dimensions and made from the same batch of material as the treatment. […]
Approximately 100 adult male and female mosquitoes (Aedes taeniorhynchus) (exact sex ratio not determined) were placed in a 12×12×14.5 inch stainless steel screened cage. […]
The following data are the control responses when the tester's hand covered by the ethanol treated (dried) glove was placed into the mosquito cage (at room temperature) for 20 seconds at the times indicated: 0 minutes, 10 landings and 1 bite; 10 minutes, 9-12 landings and 1 bite; 20 minutes, approximately 13 landings and no bites; and 40 minutes, approximately 13 landings and no bites. […] However, only sustained landings of about 5 seconds were recorded as a positive response along with actual bites. […]

Culex spp. = experiment: Mosquito repellency of 2-undecanone versus DEET, treated cloth on forearm (Example 8); conditions: 5% and 20% in ethyl alcohol sprayed onto cloth; landings in 5 minutes
Experimental: 2-undecanone was dissolved in ethyl alcohol (v/v at 5% and 20%) and approximately 1 ml was sprayed onto cloth that was then wrapped around the investigator's forearm prior to insertion into a 59 cm×55 cm×59 cm mosquito cage containing approximately 100 Culex spp. adult mosquitoes. DEET was a formulated, commercial product (Cutter). The number of mosquito landings in 5 minutes was recorded as well as the overall behavior response of the mosquitoes. […] The most impressive evidence of this repellent effect was the observation that the mosquitoes immediately disperse away from the treated arm and actually stop flying, instead lining up on the wire screen of the cage.
The results are shown in FIG. 5 as a graph of repellency as a function of time for 0 hr, 3 hr and 6 hr post-application of the formulations (i) 21% DEET, (ii) 20% 2-undecanone (IBI-246) and (iii) 5% 2-undecanone (IBI-246), where repellency={[# mosquito landings in Control test/# mosquitoes present in Control)−(# mosquito landings in Experiment/# mosquitoes present in Experiment)] divided by (# mosquito landings in Control test/# mosquitoes present in Control)}×100.

cockroaches = experiment: Cockroach repellency, paste floor wax with 2-undecanone; conditions: one percent by weight in paste floor wax
Source text: A commercially available paste floor wax is combined with one percent by weight of 2-undecanone and the two ingredients mixed thoroughly together. The paste floor wax is then applied to a region of flooring and buffed. The same paste floor wax, without 2-undecanone, is applied to an adjacent region of flooring in the same amount and also buffed.

[1] = Observation on the investigator's skin after application (Example 6); conditions: applied at full strength (100%) to hand/arm

Compound	landings and bites (Aedes taeniorhynchus; glove soaked in 2.5 percent solution in ethanol, dried, hand in cage 20 seconds at 0 minutes to 4 hours and 40 minutes)	host seeking behavior (Aedes taeniorhynchus; glove soaked in 2.5 percent solution, first 3 to 4 hours)	concentrations with the strongest repellent effect (Culex spp.)	time cockroaches spend in treated region versus control region of flooring (cockroaches)	skin irritation on application [1]
CCCCCCCCCC(C)=O [2-undecanone]	No landings and no bites	no host seeking behavior	strongest effect at the 20% and 5% concentrations	spend less time in the region containing 2-undecanone	–
CCCCCCCCCCCC(C)=O [2-tridecanone]	–	–	–	–	mildly irritating

From patent US7288573B2, “Method of repelling insects” (priority 2001, dated 2007)
